Test results from PubChem BioAssay (NCI).
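Protocol summary: plate cells (96-well), add compound at 5 concentrations, incubate 48 h, interpolate endpoints linearly. Abbreviation: GI50, concentration required for 50% inhibition of growth. TGI is the concentration that stops growth completely.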

What was measured:
Assay in all cases: NCI tumour cell line growth inhibition, 48 h
IGROV1 ovarian = test system: IGROV1 ovarian
HT29 colon = test system: HT29 colon
NCI-H522 lung = test system: NCI-H522 lung
SNB-19 CNS = test system: SNB-19 CNS
HL-60(TB) leukemia = test system: HL-60(TB) leukemia
SF-539 CNS = test system: SF-539 CNS
OVCAR-5 ovarian = test system: OVCAR-5 ovarian
MALME-3M melanoma = test system: MALME-3M melanoma
A498 renal = test system: A498 renal
CAKI-1 renal = test system: CAKI-1 renal

| Compound | GI50 (IGROV1 ovarian) [µM] | TGI (IGROV1 ovarian) [µM] | GI50 (HT29 colon) [µM] | TGI (HT29 colon) [µM] | GI50 (NCI-H522 lung) [µM] | TGI (NCI-H522 lung) [µM] | GI50 (SNB-19 CNS) [µM] | TGI (SNB-19 CNS) [µM] | GI50 (HL-60(TB) leukemia) [µM] | TGI (HL-60(TB) leukemia) [µM] | GI50 (SF-539 CNS) [µM] | TGI (SF-539 CNS) [µM] | GI50 (OVCAR-5 ovarian) [µM] | TGI (OVCAR-5 ovarian) [µM] | GI50 (MALME-3M melanoma) [µM] | TGI (MALME-3M melanoma) [µM] | GI50 (A498 renal) [µM] | TGI (A498 renal) [µM] | GI50 (CAKI-1 renal) [µM] | TGI (CAKI-1 renal) [µM] |
| --- | --- | --- | --- | --- | --- | --- | --- | --- | --- | --- | --- | --- | --- | --- | --- | --- | --- | --- | --- | --- |
| COc1cc(Nc2ccnc(N3CCN(c4ccnc5cc(Cl)ccc45)CC3)n2)cc(OC)c1 | 1.36 | > 26.1 | 0.46 | 2.96 | 0.874 | 4.48 | 2.64 | > 100 | 2.58 | > 100 | 1.25 | 3.17 | 2.41 | > 100 |  |  |  |  |  |  |
| CC[O-].CC[O-].O=C1C(=C([O-])c2ccccc2)C(=O)c2ccccc21.O=C1C(=C([O-])c2ccccc2)C(=O)c2ccccc21.[Ti+4] | > 100 | > 100 | > 100 | > 100 |  |  | 29 | 93 | > 100 | > 100 | > 100 | > 100 | > 100 | > 100 | > 100 | > 100 | > 100 | > 100 | 29.6 | > 100 |
| CCc1nc(N)nc(N)c1-c1ccc([N+](=O)[O-])c(NCc2ccccc2)c1 |  | 26.3 |  | 23.2 |  | 35.6 |  | 38.9 |  | 18.7 |  | 39.3 |  | > 100 |  |  |  | 32.9 |  | 29.3 |
| CC(=O)N(CCN)CCN |  |  |  |  |  | > 10 |  | > 10 |  | > 10 |  |  |  |  |  |  |  | > 10 |  | > 10 |
| O=C(CC(C(=O)c1cccs1)c1ccc2c(c1)OCO2)c1ccc(Br)cc1 (stereo not given) |  | > 100 |  |  |  |  |  | > 100 |  | > 100 |  |  |  |  |  | > 100 |  | > 100 |  | > 100 |
| CC12CC3(C)CC(C)(C1)CC(N=[N+]=[N-])(C2)C3 |  | > 100 |  | > 100 |  | > 100 |  | > 100 |  |  |  | > 100 |  | > 100 |  | > 100 |  | > 100 |  | > 100 |
| CC(O)CNC1=CC(=O)C(=O)c2ccccc21 (stereo not given) |  | 33.8 |  |  |  | 41.8 |  | 32 |  | 84.4 |  | 38.5 |  | 35.6 |  | 17.7 |  | 62.9 |  | 33.5 |
| Cc1cc(O)c2c(c1)C(O)(c1ccc3c(c1O)C(=O)c1c(O)cc(C)cc1C3(O)C1OC(CO)C(O)C(O)C1O)c1cccc(O)c1C2=O (stereo not given) |  | 28.1 |  | 38.4 |  |  |  | 30.2 |  | 46.8 |  | 26.5 |  | 32.3 |  | 25.5 |  | 26.5 |  | 31.7 |
| Cc1cc(Cl)ccc1NC(=O)C(=O)Cc1nc2ccc(C(=O)c3ccccc3)cc2[nH]c1=O |  | > 100 |  | > 100 |  | > 100 |  | > 100 |  | > 100 |  | > 100 |  |  |  | > 100 |  |  |  | > 100 |
| O=C(c1ccccc1)c1c(CC(O)c2cccnc2)n(C(=O)c2ccccc2)c2ccccc12 (stereo not given) |  | 55.5 |  | 35.6 |  | 30.1 |  | 63.1 |  | 49 |  | 30.6 |  | 37.6 |  | 43.3 |  |  |  | 70.6 |
| COc1ccc(OC)c(-c2cc(-c3ccccc3)nn2-c2ccc(S(=O)(=O)NC(C)=O)cc2)c1 | 27.4 | > 100 |  |  | 10.4 | 34.8 |  |  | 28 | > 100 | 28.1 | 60.4 | 16.9 | 31.3 |  |  |  |  | 13.9 | 33.9 |
| Cc1cc(C)c2c(c1)CN1CN2Cc2cc(C)cc(C)c21 |  | > 100 |  | 29.9 |  | 53.4 |  |  |  | 48.8 |  |  |  | > 100 |  |  |  |  |  | > 100 |
| O=c1oc2ccccc2c(O)c1C=NC(=S)c1ccncc1 |  | > 100 |  | > 100 |  |  |  | > 100 |  | 35.5 |  | > 100 |  | > 100 |  |  |  |  |  | > 100 |
| N=C(N)SCc1cn2ccccc2n1 |  |  |  | > 100 |  | > 100 |  | > 100 |  | > 100 |  | > 100 |  | > 100 |  | > 100 |  |  |  | > 100 |
| Cc1nc2c(n1CC(C)(C)C)C(=O)c1ccccc1C2=O |  | > 100 |  | > 100 |  | > 100 |  | > 100 |  | > 100 |  | > 100 |  |  |  | > 100 |  |  |  |  |
| COC(=O)C1=CCON(c2ccccc2)C1c1ccccc1 (stereo not given) |  | > 100 |  | > 100 |  | 93.8 |  | > 100 |  | 61.7 |  | > 100 |  | > 100 |  | > 100 |  |  |  | > 100 |
| O=C1[C@@H](c2ccc(Cl)cc2)[C@H]2CC=C[C@H]2N1O |  | > 100 |  | > 100 |  | > 100 |  | > 100 |  | > 100 |  | > 100 |  |  |  | > 100 |  |  |  | > 100 |
| O=C1c2ccccc2N2OC3(N4CCCC4)CCCC3C12c1ccccc1 (stereo not given) |  | > 100 |  | > 100 |  | > 100 |  | > 100 |  | > 100 |  | > 100 |  |  |  | > 100 |  | > 100 |  |  |
| COC(=O)C1=C(OC(=O)c2ccc(Cl)cc2)C(C(=O)OC)[C@@]2(O)[C@@H](C(=O)OC)C(c3ccccc3C(F)(F)F)C[C@@H]1[C@@H]2C(=O)OC (stereo not given in full) |  |  | 3.54 | > 100 | 16.4 | 43.6 | 6.44 | > 100 |  |  | 5.13 | > 100 | 54.2 | > 100 |  |  | 1.76 | 7.25 | 13.9 | 36.1 |
| CC[C@H](C)[C@H](NC(=O)c1cnccn1)C(=O)N(C)[C@H](C[C@@H](OC(C)=O)c1nc(C(=O)N[C@@H](Cc2ccccc2)C[C@H](C)C(=O)OC)cs1)C(C)C | 1.04 | > 33.3 | 1.06 | 6.75 | 0.0552 | 2.49 | 1.42 | > 33.3 | 0.9 | 2.24 | 0.779 | 2.09 | 3.71 | > 33.3 | 3.3 | > 33.3 | 0.907 | 3.15 |  |  |
| CC(C)c1cccc(C(C)C)c1NC(=O)C(=O)C(C(=O)c1ccccc1-c1ccccc1)C1OC(=O)c2ccccc21 (stereo not given) |  | 74.7 |  | 43.9 |  | 30.5 |  | 40.1 |  |  |  | 27.9 |  | 35.4 |  | 33.9 |  |  |  | 76.5 |
| CC(CO)[C@H]1OC(=O)C=C2[C@@]13O[C@@H]3[C@H]1OC(=O)[C@@]3(C)[C@H]4O[C@H]4C[C@@]2(C)[C@@H]13 (stereo not given in full) |  | 12 |  | 20.7 |  | 5.38 |  | > 30.8 |  |  |  |  |  | > 87.9 |  | 8.46 |  | > 29.4 |  | 8.25 |
| Cc1cc([N+](=O)[O-])c(C)c2c1[nH]c1ccc(/C(CCC3CCCC3)=N\N)cc12 |  |  |  | > 100 |  | 35 |  | 35.7 |  |  |  | 34.8 |  |  |  | 32 |  |  |  |  |
| Clc1ccc([O][In]([O]c2ccc(Cl)cn2)[O]c2ccc(Cl)cn2)nc1 | > 100 | > 100 | > 100 | > 100 |  |  | > 100 | > 100 |  |  | > 100 | > 100 | > 100 | > 100 | > 100 | > 100 |  |  | > 100 | > 100 |
| CC(=O)c1cccc(N(/C=C/C(=O)C(F)(F)F)CC(=O)c2ccc(Cl)cc2)c1 | > 100 | > 100 | > 100 | > 100 | > 100 | > 100 |  |  |  |  | > 100 | > 100 | > 100 | > 100 | > 100 | > 100 | > 100 | > 100 | > 100 | > 100 |
| CC(C)(C)OC(=O)NCC(C#N)CNC(=O)OC(C)(C)C |  | > 100 |  |  |  | > 100 |  | > 100 |  | > 100 |  | > 100 |  | > 100 |  | > 100 |  | > 100 |  |  |
| O=[N+]([O-])c1ccc(N=Nc2c(O)[nH]c3ccc([N+](=O)[O-])cc23)cc1 |  | > 100 |  | 51.8 |  | 50.4 |  | 40.5 |  |  |  | 33.4 |  |  |  |  |  | > 100 |  | > 100 |
| C=C1C(=O)O[C@@H]2C[C@@]3(C)CC(=O)C=C(C)[C@@H]3C[C@H]12 |  | 32.2 |  | 24.6 |  | 20.3 |  | 50 |  | 4.08 |  | 36.2 |  | 32.9 |  | 21.7 |  |  |  | 21.6 |
| C[C@]12CC[C@@H]3c4ccc(O)c([N+](=O)[O-])c4CC[C@H]3[C@@H]1CC[C@@H]2NS(=O)(=O)c1ccc(C(F)(F)F)cc1 | 2.12 | 4.68 | 2.03 | 3.71 | 1.61 | 3.48 | 2.79 | 11.2 |  |  | 1.77 | 3.39 | 1.81 | 3.72 | 1.99 | 5.41 | 1.07 | 3.48 | 2.17 | 6.24 |
| COc1ccc(C2SC(N)=Nc3c2c(C)nn3C(=O)c2ccc(Cl)cc2)cc1OC (stereo not given) |  | > 10 |  | > 10 |  | > 10 |  | > 10 |  | > 10 |  | > 10 |  | > 10 |  | > 10 |  |  |  | > 10 |
